Test results from patent publication US20060069132A1, “Azolecarboxamide herbicides” (priority 2004, published 2006).

What was measured:
ducksalad = assay: Test B flooded paddy test; type: in vivo, Heteranthera limosa; details: 1000 g ai/ha, scale 0 to 100 (0 no effect, 100 complete control)
In short: (§1)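 Visual ratings, 0 (no effect) to 100 (complete control), made versus controls after 13–15 d greenhouse. Paddy plants treated at 2-leaf stage; postemergence plants at 1- to 4-leaf stage, 2–18 cm tall.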

wheat = assay: Test B postemergence herbicide test; type: in vivo, Triticum aestivum; design: key to Wheat plant response rating: 0 = no effect, 100 = complete control; details: postemergence
In short: (§2)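 Treated at 2-leaf (paddy) or 1–4-leaf, 2–18 cm (postemergence); greenhouse 13–15 d; visual score vs control, 0 none to 100 complete control; dash = not tested.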

cocklebur = assay: Test B pre-/postemergence herbicide test; type: in vivo, Xanthium strumarium
In short: (§3)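 Visual rating, 0 (no effect) to 100 (complete control), versus untreated controls after 13–15 d in greenhouse. Pre- and postemergence applications (postemergence plants 2–18 cm, 1–4 leaves); flooded paddy arm at 2-leaf stage. Compounds in non-phytotoxic solvent plus surfactant.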

blackgrass = assay: Test B postemergence herbicide test; type: in vivo, Alopecurus myosuroides
In short: as §1

morningglory = assay: Test B pre-/postemergence herbicide test; type: in vivo, Ipomoea coccinea
In short: as §3

lambsquarters = assay: Test B pre-/postemergence herbicide test; type: in vivo, Chenopodium album
In short: (§4)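 Response was scored visually 13 to 15 days after treatment against untreated greenhouse controls, 0 meaning no effect and 100 complete control. Formulations (solvent mixture plus surfactant) went onto soil after planting, onto foliage of 1- to 4-leaf plants, and onto 2-leaf plants in a flooded paddy set including rice and barnyardgrass.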

rice = assay: Test B flooded paddy test; type: in vivo, Oryza sativa; details: 1000 g ai/ha, scale 0 to 100 (0 no effect, 100 complete control)
In short: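 Postemergence plants were sprayed with formulated test chemicals at 2 to 18 cm height (1- to 4-leaf stage); paddy species were grown to the 2-leaf stage. After 13 to 15 days in a greenhouse, injury was rated visually against untreated controls on a 0–100 scale (0 = no effect, 100 = complete control).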

pigweed = assay: Test B pre-/postemergence herbicide test; type: in vivo, Amaranthus retroflexus
In short: as §4

wild oat = assay: Test B postemergence herbicide test; type: in vivo, Avena fatua
In short: as §2

barnyardgrass [1] = assay: Test B flooded paddy test; type: in vivo, Echinochloa crus-galli; details: 1000 g ai/ha, scale 0 to 100 (0 no effect, 100 complete control)
In short: as §1

[2] = tested on: small flower umbrella sedge; assay: Test B flooded paddy test; type: in vivo, Cyperus difformis; details: 1000 g ai/ha, scale 0 to 100 (0 no effect, 100 complete control)
In short: as §1

barnyardgrass [3] = assay: Test B pre-/postemergence herbicide test; type: in vivo, Echinochloa crus-galli
In short: as §3

velvetleaf = assay: Test B pre-/postemergence herbicide test; type: in vivo, Abutilon theophrasti
In short: as §4

giant foxtail = assay: Test B pre-/postemergence herbicide test; type: in vivo, Setaria faberi
In short: as §4

Surinam grass = assay: Test B pre-/postemergence herbicide test; type: in vivo, Urochloa decumbens
In short: as §4

[4] = 125 g ai/ha; 0 is no effect, 100 is complete control; preemergence
[5] = 125 g ai/ha; visual rating, scale 0 (no effect) to 100 (complete control); postemergence
[6] = 500 g ai/ha; visual rating, 0 = no effect, 100 = complete control; preemergence
[7] = postemergence, 500 g ai/ha; scale 0 to 100, 0 is no effect, 100 is complete control
[8] = 500 g ai/ha; visual rating 0-100, 0 no effect, 100 complete control; preemergence
[9] = postemergence, 125 g ai/ha; visual rating, scale 0 (no effect) to 100 (complete control)
[10] = postemergence, 500 g ai/ha; visual rating, scale 0 (no effect) to 100 (complete control)
[11] = preemergence, 125 g ai/ha; 0 to 100 scale, 0 is no effect, 100 is complete control

CCn1nc(C(C)(C)C)cc1C(=O)Nc1cccc(OC(F)(F)C(F)F)c1 [Compound 333]
Ducksalad plant response rating (ducksalad): 80 | Wheat plant response rating (wheat; 125 g ai/ha, visual rating, scale 0 (no effect) to 100 (complete control)): 20 | Wheat plant response rating (wheat; 500 g ai/ha, scale 0 to 100, 0 is no effect, 100 is complete control): 30 | Plant response rating (0 to 100 scale), Cocklebur (cocklebur; [4]): 0 | Cocklebur plant response rating (cocklebur; [5]): 20 | Plant response rating, Cocklebur (cocklebur; [6]): 0 | Cocklebur plant response rating (cocklebur; [7]): 80 | Blackgrass plant response rating (blackgrass; [5]): 30 | Blackgrass plant response rating (blackgrass; [7]): 70 | Plant response rating (0 to 100 scale), Morningglory (morningglory; [4]): 0 | Morningglory plant response rating (morningglory; [5]): 30 | Plant response rating, Morningglory (morningglory; [6]): 10 | Morningglory plant response rating (morningglory; [7]): 60 | Plant response rating (0 to 100 scale), Lambsquarters (lambsquarters; [4]): 40 | Lambsquarters plant response rating (lambsquarters; [5]): 90 | Plant response rating, Lambsquarters (lambsquarters; [6]): 100 | Lambsquarters plant response rating (lambsquarters; [7]): 100 | Rice plant response rating (rice): 20 | Plant response rating (0 to 100 scale), Pigweed (pigweed; [4]): 90 | Pigweed plant response rating (pigweed; [5]): 90 | Plant response rating, Pigweed (pigweed; [6]): 100 | Pigweed plant response rating (pigweed; [7]): 100 | Oat, Wild plant response rating (wild oat; [5]): 40 | Oat, Wild plant response rating (wild oat; [7]): 60 | Barnyardgrass plant response rating (barnyardgrass [1]): 50 | Sedge, Umbrella plant response rating [2]: 80 | Plant response rating (0 to 100 scale), Barnyardgrass (barnyardgrass [3]; [4]): 0 | Barnyardgrass plant response rating (barnyardgrass [3]; [5]): 10 | Plant response rating, Barnyardgrass (barnyardgrass [3]; [6]): 20 | Barnyardgrass plant response rating (barnyardgrass [3]; [7]): 40 | Plant response rating (0 to 100 scale), Velvetleaf (velvetleaf; [4]): 10 | Velvetleaf plant response rating (velvetleaf; [5]): 50 | Velvetleaf plant response rating (velvetleaf; [7]): 60 | Plant response rating (0 to 100 scale), Foxtail, Giant (giant foxtail; [4]): 10 | Foxtail, Giant plant response rating (giant foxtail; [5]): 30 | Plant response rating, Foxtail, Giant (giant foxtail; [6]): 20 | Foxtail, Giant plant response rating (giant foxtail; [7]): 40 | Plant response rating (0 to 100 scale), Surinam Grass (Surinam grass; [4]): 10 | Surinam Grass plant response rating (Surinam grass; [5]): 20 | Plant response rating, Surinam Grass (Surinam grass; [6]): 20 | Surinam Grass plant response rating (Surinam grass; [7]): 30

CCn1nc(C(C)(C)C)cc1C(=O)Nc1cccc(C(=O)NC2CC2)n1 [Compound 146]
Ducksalad plant response rating (ducksalad; visual rating, 13 to 15 days): 80 | Wheat plant response rating (wheat; 500 g ai/ha, visual rating, scale 0 (no effect) to 100 (complete control)): 10 | Plant response rating, Cocklebur (cocklebur; [8]): 0 | Cocklebur plant response rating (cocklebur; [9]): 20 | Cocklebur plant response rating (cocklebur; [10]): 80 | Plant response rating, Cocklebur (cocklebur; [11]): 0 | Blackgrass plant response rating (blackgrass; [9]): 10 | Blackgrass plant response rating (blackgrass; [10]): 20 | Plant response rating, Morningglory (morningglory; [8]): 10 | Morningglory plant response rating (morningglory; [9]): 0 | Morningglory plant response rating (morningglory; [10]): 20 | Plant response rating, Morningglory (morningglory; [11]): 0 | Plant response rating, Lambsquarters (lambsquarters; [8]): 100 | Lambsquarters plant response rating (lambsquarters; [9]): 80 | Lambsquarters plant response rating (lambsquarters; [10]): 90 | Plant response rating, Lambsquarters (lambsquarters; [11]): 80 | Rice plant response rating (rice; visual rating, 13 to 15 days): 40 | Plant response rating, Pigweed (pigweed; [8]): 100 | Pigweed plant response rating (pigweed; [9]): 80 | Pigweed plant response rating (pigweed; [10]): 90 | Plant response rating, Pigweed (pigweed; [11]): 100 | Oat, Wild plant response rating (wild oat; [9]): 10 | Oat, Wild plant response rating (wild oat; [10]): 20 | Barnyardgrass plant response rating (barnyardgrass [1]; visual rating, 13 to 15 days): 60 | Sedge, Umbrella plant response rating ([2]; visual rating, 13 to 15 days): 90 | Plant response rating, Barnyardgrass (barnyardgrass [3]; [8]): 90 | Barnyardgrass plant response rating (barnyardgrass [3]; [9]): 20 | Barnyardgrass plant response rating (barnyardgrass [3]; [10]): 60 | Plant response rating, Barnyardgrass (barnyardgrass [3]; [11]): 40 | Plant response rating, Velvetleaf (velvetleaf; [8]): 90 | Velvetleaf plant response rating (velvetleaf; [9]): 50 | Velvetleaf plant response rating (velvetleaf; [10]): 60 | Plant response rating, Velvetleaf (velvetleaf; [11]): 20 | Plant response rating, Foxtail, Giant (giant foxtail; [8]): 90 | Foxtail, Giant plant response rating (giant foxtail; [9]): 20 | Foxtail, Giant plant response rating (giant foxtail; [10]): 20 | Plant response rating, Foxtail, Giant (giant foxtail; [11]): 10 | Plant response rating, Surinam Grass (Surinam grass; [8]): 30 | Surinam Grass plant response rating (Surinam grass; [9]): 10 | Surinam Grass plant response rating (Surinam grass; [10]): 30 | Plant response rating, Surinam Grass (Surinam grass; [11]): 10
